# Patent US20240228489A1, “POSITIVE ALLOSTERIC MODULATORS OF THE MUSCARINIC ACETYLCHOLINE RECEPTOR M1” (Vanderbilt University, priority 2021, published 2024)
# Key:
# human mAChR M1 [1] = molecular target: T1, human mAChR M1 (Homo sapiens, UniProt P11229); test: mAChR M1 cell-based functional assay (calcium mobilization), PAM mode: increase in the EC20 acetylcholine response
# T1 sequence (P11229 1-460): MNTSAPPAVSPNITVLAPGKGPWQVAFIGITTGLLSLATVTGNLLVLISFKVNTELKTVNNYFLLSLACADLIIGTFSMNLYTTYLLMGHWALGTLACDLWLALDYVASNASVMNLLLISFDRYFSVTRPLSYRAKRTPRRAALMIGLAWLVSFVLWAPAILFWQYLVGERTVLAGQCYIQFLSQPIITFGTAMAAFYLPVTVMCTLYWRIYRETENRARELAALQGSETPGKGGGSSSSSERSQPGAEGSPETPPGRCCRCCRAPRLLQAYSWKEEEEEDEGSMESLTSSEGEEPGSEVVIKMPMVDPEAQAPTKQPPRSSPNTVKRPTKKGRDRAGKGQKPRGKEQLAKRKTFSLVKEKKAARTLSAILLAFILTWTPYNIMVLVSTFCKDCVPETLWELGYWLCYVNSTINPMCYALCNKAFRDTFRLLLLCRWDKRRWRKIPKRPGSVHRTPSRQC
# Outline: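 CHO-K1 cells stably expressing hM1, Fluo-4 loaded, read by FDSS calcium flux at 1 Hz. Compound (11-point 1:3 CRC) added at 4 s, EC20 acetylcholine at 144 s, EC80 at 230 s. PAM activity taken as concentration-dependent increase in EC20 ACh response, fitted by four-parameter logistic for EC50/Emax.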
# human mAChR M1 [2] = molecular target: T1, human mAChR M1; test: mAChR M1 cell-based functional assay (calcium mobilization), agonist mode: compound alone, Emax relative to acetylcholine maximum; conditions: for EC50 / Agonist Activity Human M1 EC50: human mAChR M1; for Emax: relative to the maximum for acetylcholine
# Outline: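 CHO-K1 cells stably expressing hM1 were loaded with Fluo-4 AM, and calcium flux was read as fluorescence ratio. Compound was added alone from an 11-point 1:3 curve, and the agonist response was fitted with a four-parameter logistic. Emax is expressed relative to the acetylcholine maximum.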
structure (smiles),measurement,setting,value
"[2H]C1([2H])c2ncccc2C(=O)N1Cc1c(C)cc(-c2ccc(OC3CC3)c3nn(C)cc23)cc1F [Compound 196, 6-(4-(7-cyclopropoxy-2-methyl-2H-indazol-4-yl)-2-fluoro-6-methylbenzyl)-6,7-dihydro-5H-pyrrolo[3,4-b]pyridin-5-one-7,7-d2]",EC50,human mAChR M1 [1],437 nM
same,Emax,human mAChR M1 [1],83%
same,EC50,human mAChR M1 [2],8680 nM
same,Emax,human mAChR M1 [2],43%
"[2H]C1([2H])c2ncccc2C(=O)N1Cc1c(C)cc(-c2ccc(C)c3nn(C)cc23)cc1F [Compound 197, 6-(4-(2,7-dimethyl-2H-indazol-4-yl)-2-fluoro-6-methylbenzyl)-6,7-dihydro-5H-pyrrolo[3,4-b]pyridin-5-one-7,7-d2]",EC50,human mAChR M1 [1],433 nM
same,Emax,human mAChR M1 [1],85%
same,EC50,human mAChR M1 [2],≥ 10000 nM
same,Emax,human mAChR M1 [2],37%
"[2H]C1([2H])c2ncccc2C(=O)N1Cc1c(C)cc(-c2ccc(F)c3nn(C)cc23)cc1F [Compound 198, 6-(2-fluoro-4-(7-fluoro-2-methyl-2H-indazol-4-yl)-6-methylbenzyl)-6,7-dihydro-5H-pyrrolo[3,4-b]pyridin-5-one-7,7-d2]",EC50,human mAChR M1 [1],347 nM
same,Emax,human mAChR M1 [1],79%
same,EC50,human mAChR M1 [2],5600 nM
same,Emax,human mAChR M1 [2],30%
"[2H]C1([2H])c2ncccc2C(=O)N1Cc1c(C)cc(-c2ccc(Cl)c3nn(C)cc23)cc1F [Compound 199, 6-(4-(7-chloro-2-methyl-2H-indazol-4-yl)-2-fluoro-6-methylbenzyl)-6,7-dihydro-5H-pyrrolo[3,4-b]pyridin-5-one-7,7-d2]",EC50,human mAChR M1 [1],475 nM
same,Emax,human mAChR M1 [1],81%
same,Agonist Activity Human M1 EC50,human mAChR M1 [2],Inactive
same,Emax,human mAChR M1 [2],4%
"[2H]C1([2H])c2ncccc2C(=O)N1Cc1c(C)cc(-c2ccc(C(F)(F)F)c3nn(C)cc23)cc1F [Compound 200, 6-(2-fluoro-6-methyl-4-(2-methyl-7-(trifluoromethyl)-2H-indazol-4-yl)benzyl)-6,7-dihydro-5H-pyrrolo[3,4-b]pyridin-5-one-7,7-d2]",EC50,human mAChR M1 [1],768 nM
same,Emax,human mAChR M1 [1],83%
same,EC50,human mAChR M1 [2],≥ 10000 nM
same,Emax,human mAChR M1 [2],15%
"[2H]C1([2H])c2ncccc2C(=O)N1Cc1c(C)cc(-c2ccnc3nn(C)cc23)cc1F [Compound 201, 6-(2-fluoro-6-methyl-4-(2-methyl-2H-pyrazolo[3,4-b]pyridin-4-yl)benzyl)-6,7-dihydro-5H-pyrrolo[3,4-b]pyridin-5-one-7,7-d2]",EC50,human mAChR M1 [1],332 nM
same,Emax,human mAChR M1 [1],83%
same,EC50,human mAChR M1 [2],5200 nM
same,Emax,human mAChR M1 [2],43%
"[2H]C1([2H])c2ncccc2C(=O)N1Cc1c(F)cc(-c2ccc(OC3CC3)c3nn(C)cc23)cc1C1CC1 [Compound 202, 6-(4-(7-cyclopropoxy-2-methyl-2H-indazol-4-yl)-2-cyclopropyl-6-fluorobenzyl)-6,7-dihydro-5H-pyrrolo[3,4-b]pyridin-5-one-7,7-d2]",EC50,human mAChR M1 [1],429 nM
same,Emax,human mAChR M1 [1],81%
same,EC50,human mAChR M1 [2],3240 nM
same,Emax,human mAChR M1 [2],44%
"[2H]C1([2H])c2ncccc2C(=O)N1Cc1c(F)cc(-c2ccc(OCCOC)c3nn(C)cc23)cc1C1CC1 [Compound 203, 6-(2-cyclopropyl-6-fluoro-4-(7-(2-methoxyethoxy)-2-methyl-2H-indazol-4-yl)benzyl)-6,7-dihydro-5H-pyrrolo[3,4-b]pyridin-5-one-7,7-d2]",EC50,human mAChR M1 [1],815 nM
same,Emax,human mAChR M1 [1],75%
same,EC50,human mAChR M1 [2],2560 nM
same,Emax,human mAChR M1 [2],63%
"[2H]C1([2H])c2ncccc2C(=O)N1Cc1c(F)cc(-c2ccc(C)c3nn(C)cc23)cc1C1CC1 [Compound 204, 6-(2-cyclopropyl-4-(2,7-dimethyl-2H-indazol-4-yl)-6-fluorobenzyl)-6,7-dihydro-5H-pyrrolo[3,4-b]pyridin-5-one-7,7-d2]",EC50,human mAChR M1 [1],293 nM
same,Emax,human mAChR M1 [1],70%
same,EC50,human mAChR M1 [2],7450 nM
same,Emax,human mAChR M1 [2],49%
"[2H]C1([2H])c2ncccc2C(=O)N1Cc1c(F)cc(-c2ccc(F)c3nn(C)cc23)cc1C1CC1 [Compound 205, 6-(2-cyclopropyl-6-fluoro-4-(7-fluoro-2-methyl-2H-indazol-4-yl)benzyl)-6,7-dihydro-5H-pyrrolo[3,4-b]pyridin-5-one-7,7-d2]",EC50,human mAChR M1 [1],248 nM
same,Emax,human mAChR M1 [1],86%
same,EC50,human mAChR M1 [2],5980 nM
same,Emax,human mAChR M1 [2],54%
"[2H]C1([2H])c2ncccc2C(=O)N1Cc1c(F)cc(-c2ccc(Cl)c3nn(C)cc23)cc1C1CC1 [Compound 206, 6-(4-(7-chloro-2-methyl-2H-indazol-4-yl)-2-cyclopropyl-6-fluorobenzyl)-6,7-dihydro-5H-pyrrolo[3,4-b]pyridin-5-one-7,7-d2]",EC50,human mAChR M1 [1],335 nM
same,Emax,human mAChR M1 [1],81%
same,EC50,human mAChR M1 [2],9700 nM
same,Emax,human mAChR M1 [2],38%
"[2H]C1([2H])c2ncccc2C(=O)N1Cc1c(F)cc(-c2ccc(C(F)(F)F)c3nn(C)cc23)cc1C1CC1 [Compound 207, 6-(2-cyclopropyl-6-fluoro-4-(2-methyl-7-(trifluoromethyl)-2H-indazol-4-yl)benzyl)-6,7-dihydro-5H-pyrrolo[3,4-b]pyridin-5-one-7,7-d2]",EC50,human mAChR M1 [1],673 nM
same,Emax,human mAChR M1 [1],84%
same,EC50,human mAChR M1 [2],8070 nM
same,Emax,human mAChR M1 [2],25%
"[2H]C1([2H])c2ncccc2C(=O)N1Cc1c(F)cc(-c2ccnc3nn(C)cc23)cc1C1CC1 [Compound 208, 6-(2-cyclopropyl-6-fluoro-4-(2-methyl-2H-pyrazolo[3,4-b]pyridin-4-yl)benzyl)-6,7-dihydro-5H-pyrrolo[3,4-b]pyridin-5-one-7,7-d2]",EC50,human mAChR M1 [1],140 nM
same,Emax,human mAChR M1 [1],88%
same,EC50,human mAChR M1 [2],1200 nM
same,Emax,human mAChR M1 [2],59%
"[2H]C1([2H])c2ncccc2C(=O)N1Cc1c(F)cc(-c2ccc(OC)c3nn(C([2H])([2H])[2H])cc23)cc1C1CC1 [Compound 209, 6-(2-cyclopropyl-6-fluoro-4-(7-methoxy-2-(methyl-d3)-2H-indazol-4-yl)benzyl)-6,7-dihydro-5H-pyrrolo[3,4-b]pyridin-5-one-7,7-d2]",EC50,human mAChR M1 [1],769 nM
same,Emax,human mAChR M1 [1],83%
same,EC50,human mAChR M1 [2],2580 nM
same,Emax,human mAChR M1 [2],62%
"[2H]C1([2H])c2ncccc2C(=O)N1Cc1c(F)cc(-c2cccc3nn(C)cc23)cc1OCC(C)C [Compound 210, 6-(2-fluoro-6-isobutoxy-4-(2-methyl-2H-indazol-4-yl)benzyl)-6,7-dihydro-5H-pyrrolo[3,4-b]pyridin-5-one-7,7-d2]",EC50,human mAChR M1 [1],865 nM
same,Emax,human mAChR M1 [1],83%
same,Agonist Activity Human M1 EC50,human mAChR M1 [2],Inactive
same,Emax,human mAChR M1 [2],14%
"[2H]C1([2H])c2ncccc2C(=O)N1Cc1c(F)cc(-c2ccc3nn(C)cc3c2)cc1OCC(C)C [Compound 211, 6-(2-fluoro-6-isobutoxy-4-(2-methyl-2H-indazol-5-yl)benzyl)-6,7-dihydro-5H-pyrrolo[3,4-b]pyridin-5-one-7,7-d2]",EC50,human mAChR M1 [1],1290 nM
same,Emax,human mAChR M1 [1],88%
same,Agonist Activity Human M1 EC50,human mAChR M1 [2],Inactive
same,Emax,human mAChR M1 [2],3%
"[2H]C1([2H])c2ncccc2C(=O)N1Cc1c(F)cc(-c2ccc(OC3CC3)c3nn(C)cc23)cc1OCC(C)C [Compound 212, 6-(4-(7-cyclopropoxy-2-methyl-2H-indazol-4-yl)-2-fluoro-6-isobutoxybenzyl)-6,7-dihydro-5H-pyrrolo[3,4-b]pyridin-5-one-7,7-d2]",EC50,human mAChR M1 [1],1450 nM
same,Emax,human mAChR M1 [1],82%
same,Agonist Activity Human M1 EC50,human mAChR M1 [2],Inactive
same,Emax,human mAChR M1 [2],2%
"[2H]C1([2H])c2ncccc2C(=O)N1Cc1c(F)cc(-c2ccc(C)c3nn(C)cc23)cc1OCC(C)C [Compound 213, 6-(4-(2,7-dimethyl-2H-indazol-4-yl)-2-fluoro-6-isobutoxybenzyl)-6,7-dihydro-5H-pyrrolo[3,4-b]pyridin-5-one-7,7-d2]",EC50,human mAChR M1 [1],1520 nM
same,Emax,human mAChR M1 [1],81%
same,Agonist Activity Human M1 EC50,human mAChR M1 [2],Inactive
same,Emax,human mAChR M1 [2],3%
